The term residual activity denotes the signal under treatment as a percentage of the control signal. In general, inhibition refers to the relative decrease from the control value, in per cent.

In test [1] the target is Leucine-rich repeat serine/threonine-protein kinase 2 (Homo sapiens, UniProt Q5S007). The settings on record: Compound concentration 1000.0 nM.
The target of test [2] is Histamine H3 receptor (Homo sapiens) (UniProt Q9Y5N1). The settings on record: Compound concentration 10.0 uM.
Sequence of Histamine H3 receptor (Homo sapiens) (Q9Y5N1 whole entry): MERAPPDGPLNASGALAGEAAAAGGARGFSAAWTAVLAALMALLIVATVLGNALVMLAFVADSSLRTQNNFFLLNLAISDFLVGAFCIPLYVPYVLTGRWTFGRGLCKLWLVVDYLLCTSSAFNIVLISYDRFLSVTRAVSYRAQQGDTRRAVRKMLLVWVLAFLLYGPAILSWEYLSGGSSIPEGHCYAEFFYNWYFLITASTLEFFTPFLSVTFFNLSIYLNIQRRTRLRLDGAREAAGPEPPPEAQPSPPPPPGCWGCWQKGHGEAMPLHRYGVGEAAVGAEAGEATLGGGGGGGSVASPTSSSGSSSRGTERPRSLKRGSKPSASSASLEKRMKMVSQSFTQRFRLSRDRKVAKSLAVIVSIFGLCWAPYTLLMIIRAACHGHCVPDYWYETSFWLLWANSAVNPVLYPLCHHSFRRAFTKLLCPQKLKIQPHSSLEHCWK
The test system of test [3] is Leucine-rich repeat serine/threonine-protein kinase 2 (Homo sapiens), Q5S007 [G2019S]. The settings on record: Compound concentration 1000.0 nM.
Sequence of Leucine-rich repeat serine/threonine-protein kinase 2 (Homo sapiens), Q5S007 [G2019S] (Q5S007 whole entry G2019S): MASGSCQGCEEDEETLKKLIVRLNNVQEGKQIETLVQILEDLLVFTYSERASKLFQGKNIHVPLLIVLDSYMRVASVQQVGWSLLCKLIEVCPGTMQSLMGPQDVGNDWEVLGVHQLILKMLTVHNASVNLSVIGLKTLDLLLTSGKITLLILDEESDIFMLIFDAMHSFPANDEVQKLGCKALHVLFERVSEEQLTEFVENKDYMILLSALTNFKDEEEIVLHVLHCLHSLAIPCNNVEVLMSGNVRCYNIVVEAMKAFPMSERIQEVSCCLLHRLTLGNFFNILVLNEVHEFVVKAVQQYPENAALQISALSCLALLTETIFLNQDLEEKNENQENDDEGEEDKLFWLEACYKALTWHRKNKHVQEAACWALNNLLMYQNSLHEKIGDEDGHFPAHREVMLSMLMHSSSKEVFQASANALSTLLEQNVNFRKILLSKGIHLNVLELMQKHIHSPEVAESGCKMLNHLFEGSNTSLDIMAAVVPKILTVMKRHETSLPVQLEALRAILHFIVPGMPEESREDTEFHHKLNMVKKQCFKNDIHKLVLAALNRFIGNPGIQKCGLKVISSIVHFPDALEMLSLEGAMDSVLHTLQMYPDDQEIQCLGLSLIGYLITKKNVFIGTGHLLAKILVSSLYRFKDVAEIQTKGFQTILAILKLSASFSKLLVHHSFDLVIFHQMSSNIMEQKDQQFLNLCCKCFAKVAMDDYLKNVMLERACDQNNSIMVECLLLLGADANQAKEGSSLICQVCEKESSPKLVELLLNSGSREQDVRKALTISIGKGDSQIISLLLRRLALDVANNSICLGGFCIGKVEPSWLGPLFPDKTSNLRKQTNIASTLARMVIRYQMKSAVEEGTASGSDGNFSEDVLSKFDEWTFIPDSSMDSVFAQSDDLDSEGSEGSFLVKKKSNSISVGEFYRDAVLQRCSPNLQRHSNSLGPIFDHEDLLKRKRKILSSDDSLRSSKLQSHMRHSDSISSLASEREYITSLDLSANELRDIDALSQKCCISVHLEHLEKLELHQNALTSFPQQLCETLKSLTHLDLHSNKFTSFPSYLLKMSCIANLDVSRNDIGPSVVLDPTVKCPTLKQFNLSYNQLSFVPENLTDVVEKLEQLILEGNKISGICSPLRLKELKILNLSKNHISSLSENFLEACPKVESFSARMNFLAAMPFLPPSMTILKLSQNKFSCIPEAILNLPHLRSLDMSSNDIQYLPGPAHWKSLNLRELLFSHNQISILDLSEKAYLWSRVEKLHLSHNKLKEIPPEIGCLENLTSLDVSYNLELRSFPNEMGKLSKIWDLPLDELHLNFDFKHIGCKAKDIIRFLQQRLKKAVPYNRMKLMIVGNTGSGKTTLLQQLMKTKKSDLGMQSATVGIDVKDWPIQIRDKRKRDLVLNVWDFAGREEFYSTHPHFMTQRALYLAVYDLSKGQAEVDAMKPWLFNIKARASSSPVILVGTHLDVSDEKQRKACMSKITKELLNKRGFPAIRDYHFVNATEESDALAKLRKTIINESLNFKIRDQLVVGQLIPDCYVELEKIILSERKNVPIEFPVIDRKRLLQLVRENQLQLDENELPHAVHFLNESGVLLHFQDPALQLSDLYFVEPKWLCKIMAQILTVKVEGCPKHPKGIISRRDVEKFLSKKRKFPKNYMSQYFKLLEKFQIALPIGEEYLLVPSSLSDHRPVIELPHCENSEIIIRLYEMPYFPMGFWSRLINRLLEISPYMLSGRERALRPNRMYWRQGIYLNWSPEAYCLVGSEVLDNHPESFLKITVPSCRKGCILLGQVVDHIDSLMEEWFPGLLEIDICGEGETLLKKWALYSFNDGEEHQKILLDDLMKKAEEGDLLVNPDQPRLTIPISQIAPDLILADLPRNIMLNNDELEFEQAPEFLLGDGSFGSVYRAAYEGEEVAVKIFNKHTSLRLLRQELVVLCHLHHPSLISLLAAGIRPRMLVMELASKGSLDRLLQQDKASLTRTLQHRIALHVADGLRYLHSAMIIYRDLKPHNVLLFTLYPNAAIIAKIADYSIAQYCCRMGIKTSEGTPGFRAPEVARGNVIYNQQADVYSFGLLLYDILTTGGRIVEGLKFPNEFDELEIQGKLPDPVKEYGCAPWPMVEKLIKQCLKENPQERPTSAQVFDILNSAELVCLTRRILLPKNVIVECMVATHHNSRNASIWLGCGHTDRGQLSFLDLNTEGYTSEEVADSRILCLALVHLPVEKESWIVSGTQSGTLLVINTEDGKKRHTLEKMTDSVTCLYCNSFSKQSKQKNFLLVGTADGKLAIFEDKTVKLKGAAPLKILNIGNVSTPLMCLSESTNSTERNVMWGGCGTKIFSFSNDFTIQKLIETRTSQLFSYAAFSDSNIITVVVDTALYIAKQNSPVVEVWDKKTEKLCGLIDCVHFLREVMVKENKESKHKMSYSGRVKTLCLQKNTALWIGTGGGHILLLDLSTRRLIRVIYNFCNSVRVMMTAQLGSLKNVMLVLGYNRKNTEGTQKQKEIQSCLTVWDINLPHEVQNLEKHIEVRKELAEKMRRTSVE
The target in test [4] is Mitogen-activated protein kinase kinase kinase kinase 5 (Homo sapiens) (UniProt Q9Y4K4). Description: MAP4K5 (KHS1) Kinase screen. The settings on record: Compound concentration 1.0 uM.
In test [5] the target is T1, Serine/threonine-protein kinase Sgk1 (Homo sapiens) (UniProt O00141).
T1 sequence (whole entry): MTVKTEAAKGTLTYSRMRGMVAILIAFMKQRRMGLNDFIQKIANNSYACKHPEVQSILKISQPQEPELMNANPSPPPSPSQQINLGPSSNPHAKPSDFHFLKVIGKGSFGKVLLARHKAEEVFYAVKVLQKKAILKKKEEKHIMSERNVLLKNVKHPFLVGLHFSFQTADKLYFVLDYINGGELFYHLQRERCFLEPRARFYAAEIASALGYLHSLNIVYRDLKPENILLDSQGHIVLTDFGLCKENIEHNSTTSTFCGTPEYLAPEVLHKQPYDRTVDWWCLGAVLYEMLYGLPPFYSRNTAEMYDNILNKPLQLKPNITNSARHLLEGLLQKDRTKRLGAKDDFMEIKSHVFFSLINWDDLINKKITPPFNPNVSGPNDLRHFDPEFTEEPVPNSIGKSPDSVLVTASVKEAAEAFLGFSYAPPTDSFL
Briefly: SGK (SGK1) Kinase screen. The conditions noted are these: Compound concentration 1.0 uM.

Test [6] deals with STE20-like serine/threonine-protein kinase (Homo sapiens) (UniProt Q9H2G2). Description: SLK Kinase screen. The conditions noted are these: Compound concentration 1.0 uM.
For test [7], the target named is T2, Serine/threonine-protein kinase TAO2 (Homo sapiens) (UniProt Q9UL54).
T2 sequence (whole entry): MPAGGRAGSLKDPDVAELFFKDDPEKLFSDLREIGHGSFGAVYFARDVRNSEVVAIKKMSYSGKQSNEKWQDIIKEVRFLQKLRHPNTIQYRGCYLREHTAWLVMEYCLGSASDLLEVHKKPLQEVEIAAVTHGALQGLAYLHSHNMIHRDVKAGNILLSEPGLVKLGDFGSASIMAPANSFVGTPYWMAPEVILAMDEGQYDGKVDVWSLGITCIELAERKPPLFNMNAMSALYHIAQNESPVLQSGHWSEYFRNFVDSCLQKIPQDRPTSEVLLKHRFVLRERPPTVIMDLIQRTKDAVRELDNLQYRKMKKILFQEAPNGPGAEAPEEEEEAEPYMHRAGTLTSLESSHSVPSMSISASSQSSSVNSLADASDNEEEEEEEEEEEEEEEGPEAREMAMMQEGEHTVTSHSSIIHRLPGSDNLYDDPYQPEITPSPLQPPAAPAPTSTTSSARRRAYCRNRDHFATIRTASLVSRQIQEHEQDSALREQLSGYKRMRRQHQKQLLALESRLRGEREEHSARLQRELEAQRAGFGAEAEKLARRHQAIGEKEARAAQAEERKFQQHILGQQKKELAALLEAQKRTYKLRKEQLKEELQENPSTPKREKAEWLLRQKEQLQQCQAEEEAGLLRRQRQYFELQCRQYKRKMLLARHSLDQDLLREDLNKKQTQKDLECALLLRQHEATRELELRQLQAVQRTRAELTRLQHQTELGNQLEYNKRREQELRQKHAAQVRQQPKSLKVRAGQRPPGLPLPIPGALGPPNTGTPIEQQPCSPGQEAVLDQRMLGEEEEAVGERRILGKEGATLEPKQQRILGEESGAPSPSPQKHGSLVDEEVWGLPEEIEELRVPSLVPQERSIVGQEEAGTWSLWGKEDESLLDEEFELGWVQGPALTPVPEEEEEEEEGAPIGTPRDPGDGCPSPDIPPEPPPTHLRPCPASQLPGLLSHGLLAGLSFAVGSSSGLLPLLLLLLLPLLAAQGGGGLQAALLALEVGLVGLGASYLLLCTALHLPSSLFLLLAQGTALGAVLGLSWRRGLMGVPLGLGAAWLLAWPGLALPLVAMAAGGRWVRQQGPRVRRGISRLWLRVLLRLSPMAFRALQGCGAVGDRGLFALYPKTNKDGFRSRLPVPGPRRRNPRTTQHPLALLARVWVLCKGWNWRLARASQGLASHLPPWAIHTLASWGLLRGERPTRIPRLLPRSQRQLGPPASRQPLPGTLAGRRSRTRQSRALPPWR
Description: TAOK2 (TAO1) Kinase screen. The settings on record: Compound concentration 1.0 uM.

Test [8] addresses T3, Alpha-1D adrenergic receptor (Homo sapiens) (UniProt P25100).
T3 sequence (whole entry): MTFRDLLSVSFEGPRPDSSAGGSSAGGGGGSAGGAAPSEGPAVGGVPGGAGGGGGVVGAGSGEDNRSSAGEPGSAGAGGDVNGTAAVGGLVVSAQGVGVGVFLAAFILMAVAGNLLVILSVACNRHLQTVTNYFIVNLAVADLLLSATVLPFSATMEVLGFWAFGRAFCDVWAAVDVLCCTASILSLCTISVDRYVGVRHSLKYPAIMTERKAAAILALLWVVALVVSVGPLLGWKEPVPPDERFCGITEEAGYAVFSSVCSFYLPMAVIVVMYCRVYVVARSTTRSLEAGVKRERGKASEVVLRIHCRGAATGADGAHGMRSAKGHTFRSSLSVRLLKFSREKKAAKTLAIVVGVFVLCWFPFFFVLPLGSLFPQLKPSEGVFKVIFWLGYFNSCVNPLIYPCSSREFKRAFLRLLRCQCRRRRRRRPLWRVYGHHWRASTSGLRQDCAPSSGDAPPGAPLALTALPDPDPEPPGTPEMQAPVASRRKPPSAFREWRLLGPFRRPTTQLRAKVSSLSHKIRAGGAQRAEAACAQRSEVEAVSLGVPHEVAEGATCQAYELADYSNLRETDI
Description: Inhibition of Adrenergic alpha1D at 10 µM in the Eurofins-Panlabs radioligand binding assay (Eurofins_assay_203400). The settings on record: Compound concentration 10.0 uM.

Test [9] has as its target Serine/threonine-protein kinase N1 (Homo sapiens) (UniProt Q16512). Briefly: PKN1 (PRK1) Kinase screen. The settings on record: Compound concentration 1.0 uM.
For test [10], the target named is Tyrosine-protein kinase Blk (Homo sapiens) (UniProt P51451). Briefly: BLK Kinase screen. The settings on record: Compound concentration 1.0 uM.
The target of test [11] is Phosphodiesterase 3 (Homo sapiens) (UniProt Q14432+Q13370). Briefly: Inhibition of Phosphodiesterase PDE3 at compound concentration of 10.0 uM in the Eurofins-Panlabs enzyme assay (Eurofins_assay_152000). Set-up: substrate with concentration 1.01 uM [3H] cAMP + cAMP, incubation time 20 min, incubation temperature 25 C. It is filed as protein assay. The conditions noted are these: Compound concentration 10.0 uM.

The target in test [12] is Calcium/calmodulin-dependent protein kinase kinase 1 (Homo sapiens) (UniProt Q8N5S9). Briefly: CAMKK1 (CAMKKA) Kinase screen. The settings on record: Compound concentration 1.0 uM.
Sequence of Calcium/calmodulin-dependent protein kinase kinase 1 (Homo sapiens) (Q8N5S9 whole entry, looked up): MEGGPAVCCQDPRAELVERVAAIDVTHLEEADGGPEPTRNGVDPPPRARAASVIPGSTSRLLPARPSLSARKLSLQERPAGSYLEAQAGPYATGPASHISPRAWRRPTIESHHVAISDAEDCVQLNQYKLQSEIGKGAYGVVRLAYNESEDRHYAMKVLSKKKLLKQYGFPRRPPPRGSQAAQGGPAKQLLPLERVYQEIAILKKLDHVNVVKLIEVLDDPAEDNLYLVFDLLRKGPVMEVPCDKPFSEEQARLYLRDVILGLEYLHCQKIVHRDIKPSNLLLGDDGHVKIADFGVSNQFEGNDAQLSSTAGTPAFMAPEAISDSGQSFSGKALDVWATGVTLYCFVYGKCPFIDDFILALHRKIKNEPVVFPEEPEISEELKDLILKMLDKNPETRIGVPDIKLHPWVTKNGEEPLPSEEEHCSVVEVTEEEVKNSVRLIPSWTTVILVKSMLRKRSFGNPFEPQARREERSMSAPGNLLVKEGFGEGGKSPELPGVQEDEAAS
The subject of test [13] is Dual specificity mitogen-activated protein kinase kinase 6 (Homo sapiens), P52564 [S207E,T211E]. Briefly: MAP2K6 (MKK6) S207E T211E Kinase screen. The settings on record: Compound concentration 1.0 uM.
Test [14] has as its target Receptor-interacting serine/threonine-protein kinase 2 (Homo sapiens) (UniProt O43353). Description: RIPK2 Kinase screen. The settings on record: Compound concentration 1.0 uM.

Sequence of Serine/threonine-protein kinase N1 (Homo sapiens) (Q16512 2-942 limits assumed): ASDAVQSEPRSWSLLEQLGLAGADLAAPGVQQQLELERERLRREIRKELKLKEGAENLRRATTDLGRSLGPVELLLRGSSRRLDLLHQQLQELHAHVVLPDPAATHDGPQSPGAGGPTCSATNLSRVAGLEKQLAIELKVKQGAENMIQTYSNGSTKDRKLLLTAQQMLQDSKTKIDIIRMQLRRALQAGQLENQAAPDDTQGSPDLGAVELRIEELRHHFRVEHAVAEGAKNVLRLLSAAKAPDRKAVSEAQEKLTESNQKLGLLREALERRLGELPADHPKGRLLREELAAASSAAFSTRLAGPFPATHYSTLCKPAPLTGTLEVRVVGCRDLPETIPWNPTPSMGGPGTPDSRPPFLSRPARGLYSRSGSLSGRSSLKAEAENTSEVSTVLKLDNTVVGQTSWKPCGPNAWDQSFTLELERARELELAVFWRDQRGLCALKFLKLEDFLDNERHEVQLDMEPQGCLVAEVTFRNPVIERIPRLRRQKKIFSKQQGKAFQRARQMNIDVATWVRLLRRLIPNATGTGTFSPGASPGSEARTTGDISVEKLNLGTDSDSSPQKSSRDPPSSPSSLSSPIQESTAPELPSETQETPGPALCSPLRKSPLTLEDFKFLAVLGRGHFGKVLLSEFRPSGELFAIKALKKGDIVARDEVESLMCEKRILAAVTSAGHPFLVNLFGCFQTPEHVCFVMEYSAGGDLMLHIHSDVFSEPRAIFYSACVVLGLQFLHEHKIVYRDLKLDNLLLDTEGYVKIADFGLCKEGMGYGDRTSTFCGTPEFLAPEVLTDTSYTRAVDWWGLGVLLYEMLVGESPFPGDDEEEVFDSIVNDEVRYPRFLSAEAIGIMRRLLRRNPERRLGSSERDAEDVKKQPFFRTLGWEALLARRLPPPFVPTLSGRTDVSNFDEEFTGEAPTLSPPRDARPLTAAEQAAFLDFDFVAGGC
Sequence of Receptor-interacting serine/threonine-protein kinase 2 (Homo sapiens) (O43353 whole entry): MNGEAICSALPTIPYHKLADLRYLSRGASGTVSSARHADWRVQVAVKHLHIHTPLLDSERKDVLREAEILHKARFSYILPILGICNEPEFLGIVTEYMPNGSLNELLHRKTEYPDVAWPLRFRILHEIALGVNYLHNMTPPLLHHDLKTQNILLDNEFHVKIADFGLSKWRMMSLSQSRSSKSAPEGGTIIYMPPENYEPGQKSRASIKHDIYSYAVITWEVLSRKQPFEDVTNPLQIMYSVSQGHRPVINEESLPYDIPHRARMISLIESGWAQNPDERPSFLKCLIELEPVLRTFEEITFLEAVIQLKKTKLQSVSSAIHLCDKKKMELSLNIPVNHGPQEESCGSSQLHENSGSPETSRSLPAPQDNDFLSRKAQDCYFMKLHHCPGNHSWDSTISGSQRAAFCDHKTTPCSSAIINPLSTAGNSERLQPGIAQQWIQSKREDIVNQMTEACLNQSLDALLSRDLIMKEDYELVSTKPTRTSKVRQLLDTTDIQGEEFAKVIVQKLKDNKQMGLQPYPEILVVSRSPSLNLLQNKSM
Sequence of Leucine-rich repeat serine/threonine-protein kinase 2 (Q5S007 whole entry): as the sequence (Q5S007 whole entry G2019S) above, with S2019G counted along it

Turning to `C[C@@H]1CN(c2cc(-c3nn(C)c4ccc(OC5(C)CC5)cc34)ncn2)C[C@H](C)O1` [MLi-2-NC], the results for the residual activity in [1] and in test [3] were 22% and 36%, respectively. In [2], the inhibition is -6.25%.

As for `C[C@@H]1CN(c2cc(-c3n[nH]c4ccc(OC5(C)CC5)cc34)ncn2)C[C@H](C)O1` [MLi-2], the inhibition in test [4] is 3.26%; in test [5] it was -1.63%; in test [6] it was 1.5%; in [7], -2.67%; in test [8], 1%; in test [9], 1.46%. In addition, the inhibition in test [10] was 8.15%; in [11] it was 21%; in [12] it was 12.6%; in test [13], -1.97%; in [14] it was -0.0326%.

The values above are taken from ChEMBL document CHEMBL4507291 (2021).
